Description: In the present experiment, the number of immune cells was measured in co-administration of MB40100, which was expected to reduce the immune inhibition occurring with administration of cyclophosphamide.
24 hours and 48 hours after administration of cyclophosphamide (250 mg/kg), MB40100 was abdominally administered in mice at the different dosages (10 mg/kg, 20 mg/kg), respectively. After 7 days, the mice were killed to separate bone marrow cells and splenocytes, and then the number of these cells was counted pursuant to the tryphan blue exclusion method.
Peripheral blood was rapidly gathered from the eyeball distal vein using a heparin-treated capillary glass tube and collected in a K3-EDTA-treated blood-gathering tube, then examined it with an automatic globule analyzer.

With `O=P1(N(CCCl)CCCl)NCCCO1` (stereo not drawn) [cyclophosphamide] the “reduction of number of WBC compared with normal mouse” value (cyclophosphamide 250 mg/kg alone) was “about 30%”, the “number of WBC in blood” value (cyclophosphamide 250 mg/kg alone, normal mouse 7800) was 5300 and the “number of splenocytes less than normal mouse” value (cyclophosphamide alone) was “about 72.8%”. The “decrease of bone marrow cell density versus normal mouse” value (cyclophosphamide alone, 7 days after) was 29.2%, the “bone marrow cell density” value (cyclophosphamide alone, 7 days after, normal mouse 41.1×10^6) was 29.6×10^6 cells/ml and the “number of thrombocytes less than normal mouse” value (cyclophosphamide alone, peripheral blood) was “about 56%”.

From US7901716B2, “Active fraction having anti-cancer and anti-metastasis isolated from leaves and stems of ginseng” (MD Bioalpha Co., Ltd., priority 2002, dated 2011)
